# Test results from ChEMBL document CHEMBL1201862, “PubChem BioAssay data set” (2004).
# The source made the active and inactive calls.
# What was measured:
# [1] = target: T1, Small ubiquitin-related modifier 1 (Homo sapiens, UniProt P63165); test: SUMO1 protein interaction blockers, potency – biochemical, fluorescence polarization, uHTS hits, dose response (AID 624382); assay type: functional; settings: read-out: IC50_Mean
# [2] = target: DNA (cytosine-5)-methyltransferase 1 (Homo sapiens, UniProt P26358); test: inhibition of DNA methylation by DNMT1 – biochemical, fluorescent molecular beacon, confirmation (AID 602386); assay type: functional
# Chain of DNA (cytosine-5)-methyltransferase 1 (P26358 whole entry): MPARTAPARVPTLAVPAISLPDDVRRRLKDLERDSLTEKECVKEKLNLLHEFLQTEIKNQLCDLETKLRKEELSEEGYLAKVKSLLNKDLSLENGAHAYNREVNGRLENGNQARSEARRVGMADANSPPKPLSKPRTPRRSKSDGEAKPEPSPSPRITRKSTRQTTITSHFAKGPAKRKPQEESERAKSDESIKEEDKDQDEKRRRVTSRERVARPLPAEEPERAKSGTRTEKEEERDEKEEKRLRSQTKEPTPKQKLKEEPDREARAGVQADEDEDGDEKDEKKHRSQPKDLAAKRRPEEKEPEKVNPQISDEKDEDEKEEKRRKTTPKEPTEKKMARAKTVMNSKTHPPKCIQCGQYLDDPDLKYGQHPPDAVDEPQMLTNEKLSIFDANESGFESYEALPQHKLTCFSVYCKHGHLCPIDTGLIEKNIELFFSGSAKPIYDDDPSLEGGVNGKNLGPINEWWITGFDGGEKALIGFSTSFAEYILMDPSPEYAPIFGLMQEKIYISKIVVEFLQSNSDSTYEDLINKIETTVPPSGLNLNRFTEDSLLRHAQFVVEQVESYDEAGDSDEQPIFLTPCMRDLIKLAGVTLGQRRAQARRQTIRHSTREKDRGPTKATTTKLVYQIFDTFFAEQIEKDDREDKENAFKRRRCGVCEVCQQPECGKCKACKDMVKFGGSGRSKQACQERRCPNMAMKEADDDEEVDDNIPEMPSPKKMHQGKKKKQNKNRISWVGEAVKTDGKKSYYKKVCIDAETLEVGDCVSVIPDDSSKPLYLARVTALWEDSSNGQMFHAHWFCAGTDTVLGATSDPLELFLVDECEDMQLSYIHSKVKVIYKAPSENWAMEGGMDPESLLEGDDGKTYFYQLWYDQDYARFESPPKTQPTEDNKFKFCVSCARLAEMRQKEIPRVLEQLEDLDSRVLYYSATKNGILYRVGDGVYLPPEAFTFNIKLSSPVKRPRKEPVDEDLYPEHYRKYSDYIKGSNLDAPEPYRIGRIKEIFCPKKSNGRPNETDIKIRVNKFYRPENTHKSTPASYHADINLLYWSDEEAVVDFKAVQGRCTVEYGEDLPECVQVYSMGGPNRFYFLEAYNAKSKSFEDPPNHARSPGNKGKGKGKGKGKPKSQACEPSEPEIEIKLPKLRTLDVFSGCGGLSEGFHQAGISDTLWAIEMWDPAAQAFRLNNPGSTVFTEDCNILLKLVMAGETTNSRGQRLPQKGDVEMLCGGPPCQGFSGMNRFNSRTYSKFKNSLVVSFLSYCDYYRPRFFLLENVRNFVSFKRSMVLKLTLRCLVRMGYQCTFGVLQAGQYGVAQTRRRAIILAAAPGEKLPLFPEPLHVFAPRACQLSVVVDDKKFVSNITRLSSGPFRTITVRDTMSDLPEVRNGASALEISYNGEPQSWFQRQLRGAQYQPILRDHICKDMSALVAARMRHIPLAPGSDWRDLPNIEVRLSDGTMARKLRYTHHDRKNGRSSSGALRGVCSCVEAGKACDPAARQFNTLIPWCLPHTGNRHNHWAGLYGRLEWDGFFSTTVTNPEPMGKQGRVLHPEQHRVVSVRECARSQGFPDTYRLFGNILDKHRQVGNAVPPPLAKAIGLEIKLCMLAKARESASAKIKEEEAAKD
# Albumin = Albumin (Bos taurus, UniProt P02769); test: Counterscreen for inhibitors of T-cell receptor (TCR)-CD3 interaction: Fluorescence-based biochemical high throughput dose response assay to identify inhibitors of T-cell receptor (TCR)-CD3 interaction using a TAMRA-labeled BSA probe.; assay type: functional
# Chain of Albumin (P02769 whole entry): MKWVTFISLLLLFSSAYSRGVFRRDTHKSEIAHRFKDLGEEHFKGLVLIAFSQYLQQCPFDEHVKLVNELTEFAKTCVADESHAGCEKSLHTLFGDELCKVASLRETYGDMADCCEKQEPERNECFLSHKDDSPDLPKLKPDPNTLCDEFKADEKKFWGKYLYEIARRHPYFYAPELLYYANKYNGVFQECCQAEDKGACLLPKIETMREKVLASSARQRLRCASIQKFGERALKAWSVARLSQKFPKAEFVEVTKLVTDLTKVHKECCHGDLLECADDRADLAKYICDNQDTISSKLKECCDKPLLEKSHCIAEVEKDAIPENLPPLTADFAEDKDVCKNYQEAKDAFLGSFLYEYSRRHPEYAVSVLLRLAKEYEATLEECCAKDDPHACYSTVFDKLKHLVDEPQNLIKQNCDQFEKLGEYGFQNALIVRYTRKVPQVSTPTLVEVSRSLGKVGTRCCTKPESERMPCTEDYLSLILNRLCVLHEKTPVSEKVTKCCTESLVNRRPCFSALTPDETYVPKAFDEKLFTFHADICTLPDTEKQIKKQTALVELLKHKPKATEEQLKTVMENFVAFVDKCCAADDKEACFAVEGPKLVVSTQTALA
# [3] = target: T1, Small ubiquitin-related modifier 1; test: SUMO1 protein-protein binding blockers, potency – biochemical, FRET, dose response (AID 624383); assay type: functional; settings: read-out: IC50_Mean
# Protein RecA = target: T2, Protein RecA (Mycobacterium tuberculosis, UniProt P9WHJ3); test: Fluorescence Cell-Free Homogeneous Dose Retest to Identify Inhibitors of RecA-Intein Splicing Activity. [Related pubchem assays (depositor defined):AID2097, AID2223, AID489010, AID492950]; assay type: functional
# T2 sequence (P9WHJ3 whole entry): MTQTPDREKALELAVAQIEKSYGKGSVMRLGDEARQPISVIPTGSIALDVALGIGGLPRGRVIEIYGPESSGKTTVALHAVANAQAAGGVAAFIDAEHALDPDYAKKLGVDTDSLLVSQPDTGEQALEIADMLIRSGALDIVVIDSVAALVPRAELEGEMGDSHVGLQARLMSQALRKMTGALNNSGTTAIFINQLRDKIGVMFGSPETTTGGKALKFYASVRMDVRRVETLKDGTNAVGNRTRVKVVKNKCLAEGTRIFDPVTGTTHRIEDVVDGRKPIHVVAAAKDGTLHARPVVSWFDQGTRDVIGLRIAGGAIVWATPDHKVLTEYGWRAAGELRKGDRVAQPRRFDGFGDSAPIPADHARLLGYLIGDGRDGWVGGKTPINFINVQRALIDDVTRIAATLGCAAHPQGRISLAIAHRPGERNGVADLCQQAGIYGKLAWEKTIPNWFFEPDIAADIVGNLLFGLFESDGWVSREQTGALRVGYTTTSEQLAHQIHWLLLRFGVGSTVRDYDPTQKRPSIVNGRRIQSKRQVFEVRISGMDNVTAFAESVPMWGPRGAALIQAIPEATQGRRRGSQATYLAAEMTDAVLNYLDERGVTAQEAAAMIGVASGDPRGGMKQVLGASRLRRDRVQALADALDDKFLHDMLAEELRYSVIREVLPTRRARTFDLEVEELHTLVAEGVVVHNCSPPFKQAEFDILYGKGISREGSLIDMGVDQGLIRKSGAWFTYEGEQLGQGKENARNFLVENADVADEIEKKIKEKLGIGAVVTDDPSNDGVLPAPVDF
# [4] = target: T3, RNA-binding protein pos-1 (Caenorhabditis elegans, UniProt G5EF15); test: disruptors of C. elegans POS-1 RNA interaction – biochemical, fluorescence polarization, dose response (AID 1964);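 further: purified POS-1 fused to maltose binding protein made in E. coli; potency of compounds blocking POS-1 binding to fluorescent RNA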
# T3 sequence (G5EF15 whole entry): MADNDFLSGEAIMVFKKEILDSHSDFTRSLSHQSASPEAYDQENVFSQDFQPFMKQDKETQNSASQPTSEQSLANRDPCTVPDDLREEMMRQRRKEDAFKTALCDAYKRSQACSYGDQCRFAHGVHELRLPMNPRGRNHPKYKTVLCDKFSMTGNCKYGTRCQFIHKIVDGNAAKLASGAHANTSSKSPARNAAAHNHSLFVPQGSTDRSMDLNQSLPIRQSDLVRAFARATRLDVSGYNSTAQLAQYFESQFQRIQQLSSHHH
# [5] = target: Tyrosyl-DNA phosphodiesterase 2 (Homo sapiens, UniProt O95551); test: potency against TDP2 phosphodiesterase activity – biochemical, epi absorbance, IC50, dose response (AID 743297)
# Chain of Tyrosyl-DNA phosphodiesterase 2 (O95551 whole entry): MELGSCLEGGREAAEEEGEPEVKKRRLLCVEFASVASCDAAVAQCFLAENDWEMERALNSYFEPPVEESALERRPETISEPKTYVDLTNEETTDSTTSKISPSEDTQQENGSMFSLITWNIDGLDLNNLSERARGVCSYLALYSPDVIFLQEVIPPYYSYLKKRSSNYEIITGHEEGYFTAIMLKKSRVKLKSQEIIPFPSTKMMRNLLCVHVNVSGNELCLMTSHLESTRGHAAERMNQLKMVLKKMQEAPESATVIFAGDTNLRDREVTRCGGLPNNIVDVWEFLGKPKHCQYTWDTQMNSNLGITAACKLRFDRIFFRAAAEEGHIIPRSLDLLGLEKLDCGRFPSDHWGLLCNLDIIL
# [6] = target: T4, Replicative DNA helicase DnaB (Mycobacterium tuberculosis, UniProt P9WMR3); test: DnaB intein splicing inhibitors, dose response, biochemical, cell-free fluorescence (AID 449749); assay type: functional
# T4 sequence (P9WMR3 whole entry): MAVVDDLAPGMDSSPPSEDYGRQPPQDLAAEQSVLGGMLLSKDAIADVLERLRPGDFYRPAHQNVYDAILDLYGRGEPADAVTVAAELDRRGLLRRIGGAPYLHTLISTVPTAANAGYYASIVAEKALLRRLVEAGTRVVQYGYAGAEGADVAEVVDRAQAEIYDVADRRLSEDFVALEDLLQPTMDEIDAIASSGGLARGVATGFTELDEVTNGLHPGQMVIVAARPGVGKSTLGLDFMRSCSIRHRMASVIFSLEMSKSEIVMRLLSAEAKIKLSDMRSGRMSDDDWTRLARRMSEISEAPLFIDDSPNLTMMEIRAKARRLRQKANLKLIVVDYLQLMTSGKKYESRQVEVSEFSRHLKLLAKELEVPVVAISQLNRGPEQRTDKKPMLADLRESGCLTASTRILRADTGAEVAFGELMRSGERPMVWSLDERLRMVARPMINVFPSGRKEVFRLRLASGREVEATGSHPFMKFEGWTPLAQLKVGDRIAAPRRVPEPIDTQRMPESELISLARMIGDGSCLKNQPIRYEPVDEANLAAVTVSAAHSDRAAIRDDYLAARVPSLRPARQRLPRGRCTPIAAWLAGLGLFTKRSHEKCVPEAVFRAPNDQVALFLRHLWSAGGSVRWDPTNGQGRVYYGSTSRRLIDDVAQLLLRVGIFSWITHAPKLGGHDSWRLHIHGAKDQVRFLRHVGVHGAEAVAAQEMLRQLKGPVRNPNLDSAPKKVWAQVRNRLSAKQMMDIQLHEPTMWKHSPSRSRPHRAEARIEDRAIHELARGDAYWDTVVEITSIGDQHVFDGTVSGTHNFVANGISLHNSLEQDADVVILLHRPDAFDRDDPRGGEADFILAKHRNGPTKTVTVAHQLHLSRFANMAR
# [7] = target: Cystic fibrosis transmembrane conductance regulator/Golgi-associated PDZ and coiled-coil motif-containing protein (Homo sapiens, UniProt P13569+Q9HD26); test: potency against CAL PDZ-peptide interaction – biochemical, fluorescence polarization, Cerulean-tagged CAL PDZ, cherry-picks, dose response (AID 504773)
# Chain of Cystic fibrosis transmembrane conductance regulator/Golgi-associated PDZ and coiled-coil motif-containing protein (P13569 whole entry, other chains not shown): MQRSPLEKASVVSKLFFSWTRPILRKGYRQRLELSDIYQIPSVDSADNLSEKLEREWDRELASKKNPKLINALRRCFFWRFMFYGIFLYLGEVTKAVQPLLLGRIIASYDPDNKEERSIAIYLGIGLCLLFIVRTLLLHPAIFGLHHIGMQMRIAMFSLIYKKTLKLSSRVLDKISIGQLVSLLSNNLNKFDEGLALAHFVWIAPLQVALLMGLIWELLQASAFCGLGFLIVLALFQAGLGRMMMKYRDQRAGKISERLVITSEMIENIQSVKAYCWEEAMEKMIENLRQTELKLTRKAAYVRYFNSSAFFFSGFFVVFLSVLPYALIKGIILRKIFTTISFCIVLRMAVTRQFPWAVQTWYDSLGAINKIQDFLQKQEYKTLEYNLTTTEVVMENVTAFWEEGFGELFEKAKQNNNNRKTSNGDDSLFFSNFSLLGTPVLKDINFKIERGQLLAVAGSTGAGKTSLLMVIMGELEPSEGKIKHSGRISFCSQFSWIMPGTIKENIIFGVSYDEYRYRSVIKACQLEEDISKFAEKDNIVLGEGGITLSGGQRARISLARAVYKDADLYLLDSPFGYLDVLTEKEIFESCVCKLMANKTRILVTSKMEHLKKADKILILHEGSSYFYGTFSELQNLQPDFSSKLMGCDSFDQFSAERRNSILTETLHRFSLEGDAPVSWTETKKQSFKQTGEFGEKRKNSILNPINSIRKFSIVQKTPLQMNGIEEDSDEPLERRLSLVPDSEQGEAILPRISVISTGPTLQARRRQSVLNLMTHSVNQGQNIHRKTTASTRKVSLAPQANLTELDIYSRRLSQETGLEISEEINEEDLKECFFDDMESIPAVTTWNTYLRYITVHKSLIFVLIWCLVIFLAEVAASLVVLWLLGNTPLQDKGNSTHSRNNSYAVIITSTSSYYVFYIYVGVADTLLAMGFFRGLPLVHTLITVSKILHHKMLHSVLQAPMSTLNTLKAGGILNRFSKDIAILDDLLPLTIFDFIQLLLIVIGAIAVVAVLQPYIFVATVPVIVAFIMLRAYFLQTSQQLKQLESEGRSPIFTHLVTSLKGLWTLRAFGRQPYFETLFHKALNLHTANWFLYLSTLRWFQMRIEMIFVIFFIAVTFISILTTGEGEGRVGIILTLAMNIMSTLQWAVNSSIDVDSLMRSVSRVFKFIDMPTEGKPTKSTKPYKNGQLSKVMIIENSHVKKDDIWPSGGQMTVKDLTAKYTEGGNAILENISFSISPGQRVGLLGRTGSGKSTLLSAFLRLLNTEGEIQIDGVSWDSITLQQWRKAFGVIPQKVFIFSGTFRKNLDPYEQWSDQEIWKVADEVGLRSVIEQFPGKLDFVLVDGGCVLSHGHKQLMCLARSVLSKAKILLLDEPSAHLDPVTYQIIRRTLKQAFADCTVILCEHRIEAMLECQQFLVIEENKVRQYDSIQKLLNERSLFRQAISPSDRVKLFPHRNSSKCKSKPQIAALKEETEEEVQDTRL
# Vero = test: viability of Vero cells under compound – cytotoxicity control for flavivirus capping enzyme inhibitors (AID 588742); assay type: functional; settings: Chlorocebus sabaeus
# [8] = target: T5, Zinc finger protein mex-5 (Caenorhabditis elegans, UniProt Q9XUB2); test: potency of MEX-5 RNA-binding blockers – biochemical, C. elegans, fluorescence polarization, dose response (AID 1960)
# T5 sequence (Q9XUB2 whole entry): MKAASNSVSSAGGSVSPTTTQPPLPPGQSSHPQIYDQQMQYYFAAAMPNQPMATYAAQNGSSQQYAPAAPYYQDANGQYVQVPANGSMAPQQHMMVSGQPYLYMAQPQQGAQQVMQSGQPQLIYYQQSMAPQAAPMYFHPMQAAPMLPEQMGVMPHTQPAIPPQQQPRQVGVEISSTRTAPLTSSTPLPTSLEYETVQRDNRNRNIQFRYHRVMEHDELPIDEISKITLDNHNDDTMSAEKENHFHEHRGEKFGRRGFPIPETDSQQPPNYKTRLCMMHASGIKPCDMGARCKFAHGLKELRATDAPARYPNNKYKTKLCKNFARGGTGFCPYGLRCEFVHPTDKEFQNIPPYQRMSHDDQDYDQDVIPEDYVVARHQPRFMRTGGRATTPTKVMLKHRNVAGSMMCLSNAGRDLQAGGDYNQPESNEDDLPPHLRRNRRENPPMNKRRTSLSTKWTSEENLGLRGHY
# [9] = target: Glucose-6-phosphate 1-dehydrogenase (Homo sapiens, UniProt P11413); test: inhibition of Homo sapiens G6PD, dose series – biochemical, fluorescence, selectivity assay for P. falciparum G6PD inhibitor project, dose response (AID 504792); assay type: functional
# [10] = disruptors of CAL PDZ reporter peptide binding – biochemical, fluorescence polarization, untagged CAL PDZ, dry powder, dose response (AID 602255); assay type: functional
# Genome polyprotein = Genome polyprotein (dengue virus type 2, UniProt P29990); test: flavivirus cap methylation enzyme inhibition – biochemical, confirmation dose response, primary screen (AID 588689); assay type: functional
# Chain of Genome polyprotein (P29990 2492-3391 limits assumed): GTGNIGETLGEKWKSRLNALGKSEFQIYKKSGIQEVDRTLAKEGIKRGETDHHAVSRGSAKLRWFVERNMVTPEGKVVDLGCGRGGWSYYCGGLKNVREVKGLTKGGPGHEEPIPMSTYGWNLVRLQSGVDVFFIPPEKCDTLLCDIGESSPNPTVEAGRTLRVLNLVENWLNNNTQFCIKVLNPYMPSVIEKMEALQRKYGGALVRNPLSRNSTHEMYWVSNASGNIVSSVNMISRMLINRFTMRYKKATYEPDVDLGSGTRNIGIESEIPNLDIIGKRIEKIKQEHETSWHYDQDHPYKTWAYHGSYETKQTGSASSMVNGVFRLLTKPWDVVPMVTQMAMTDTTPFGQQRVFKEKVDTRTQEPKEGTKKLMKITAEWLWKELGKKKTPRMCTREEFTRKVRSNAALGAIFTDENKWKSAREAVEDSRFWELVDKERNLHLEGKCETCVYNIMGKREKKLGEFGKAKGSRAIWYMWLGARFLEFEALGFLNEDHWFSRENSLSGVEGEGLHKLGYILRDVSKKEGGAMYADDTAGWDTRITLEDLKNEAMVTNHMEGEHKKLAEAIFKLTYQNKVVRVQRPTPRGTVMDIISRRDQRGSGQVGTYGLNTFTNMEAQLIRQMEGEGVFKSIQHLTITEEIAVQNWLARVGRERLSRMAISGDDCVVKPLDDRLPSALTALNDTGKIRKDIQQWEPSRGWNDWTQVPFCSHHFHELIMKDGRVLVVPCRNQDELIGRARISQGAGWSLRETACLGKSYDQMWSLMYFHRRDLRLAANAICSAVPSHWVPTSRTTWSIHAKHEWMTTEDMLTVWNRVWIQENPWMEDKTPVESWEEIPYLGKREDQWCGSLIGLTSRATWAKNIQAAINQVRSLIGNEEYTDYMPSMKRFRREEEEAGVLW
# [11] = Luminescence Cell-Based Dose Response HTS to Identify Inhibitors of 5'UTR Stem-Loop Driven Prion Protein mRNA Translation in H4 Neuroglioblastoma Cells. [Related pubchem assays: 1827 (Project Summary), 1813 (Primary HTS)]; assay type: functional
# [12] = luciferase reporter signal suppression in cells – H4 neuroglioma cells, luminescence, dose response (AID 1990); assay type: functional, cell-based
# [13] = alpha-synuclein stem-loop luciferase translation blockers – H4 neuroglioma cells, luminescence, confirmation (AID 1988); assay type: functional, cell-based
# [14] = target: T6, Apoptotic protease-activating factor 1 (Homo sapiens, UniProt O14727); test: SAR analysis of small molecule Activators of Apaf-1 in a Fluorescent assay.; assay type: functional; settings: read-out: EC50_Mean;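 further: caspase-3 cleavage of fluorogenic Rh110 DEVD substrate downstream of apoptosome activation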
# T6 sequence (O14727 whole entry): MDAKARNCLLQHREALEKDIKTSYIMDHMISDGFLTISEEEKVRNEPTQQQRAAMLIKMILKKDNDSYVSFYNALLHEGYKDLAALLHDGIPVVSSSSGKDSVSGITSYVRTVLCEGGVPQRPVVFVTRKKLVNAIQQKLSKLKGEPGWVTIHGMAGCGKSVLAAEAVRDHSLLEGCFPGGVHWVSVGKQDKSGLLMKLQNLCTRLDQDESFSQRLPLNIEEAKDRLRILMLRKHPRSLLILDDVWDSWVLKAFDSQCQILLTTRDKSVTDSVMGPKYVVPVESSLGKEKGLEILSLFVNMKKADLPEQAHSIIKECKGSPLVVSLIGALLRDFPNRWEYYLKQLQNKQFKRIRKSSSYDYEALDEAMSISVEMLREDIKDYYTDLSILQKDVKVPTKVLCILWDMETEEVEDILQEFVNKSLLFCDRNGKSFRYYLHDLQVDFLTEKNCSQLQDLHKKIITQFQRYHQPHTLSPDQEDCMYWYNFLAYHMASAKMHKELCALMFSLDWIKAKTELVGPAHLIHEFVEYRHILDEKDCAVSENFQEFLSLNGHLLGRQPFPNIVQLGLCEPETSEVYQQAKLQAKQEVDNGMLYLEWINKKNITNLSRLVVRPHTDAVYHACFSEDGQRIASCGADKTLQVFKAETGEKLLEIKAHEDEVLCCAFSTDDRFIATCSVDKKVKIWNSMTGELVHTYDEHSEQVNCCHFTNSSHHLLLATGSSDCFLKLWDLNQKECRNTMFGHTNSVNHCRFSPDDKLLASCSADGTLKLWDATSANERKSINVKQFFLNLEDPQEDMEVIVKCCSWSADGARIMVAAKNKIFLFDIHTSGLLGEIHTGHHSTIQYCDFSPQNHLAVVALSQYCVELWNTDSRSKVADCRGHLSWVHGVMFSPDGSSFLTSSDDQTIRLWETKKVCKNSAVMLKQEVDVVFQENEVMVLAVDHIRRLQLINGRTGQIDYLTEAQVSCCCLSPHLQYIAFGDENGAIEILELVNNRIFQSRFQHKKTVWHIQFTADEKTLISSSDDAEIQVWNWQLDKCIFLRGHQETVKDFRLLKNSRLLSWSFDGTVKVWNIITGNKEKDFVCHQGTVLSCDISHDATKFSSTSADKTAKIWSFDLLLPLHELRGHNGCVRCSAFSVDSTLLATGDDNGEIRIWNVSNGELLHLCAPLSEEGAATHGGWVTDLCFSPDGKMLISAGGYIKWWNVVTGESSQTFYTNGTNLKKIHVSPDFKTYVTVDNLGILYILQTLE
# [15] = target: T7, High affinity choline transporter 1 (Homo sapiens, UniProt Q9GZV3); test: human choline transporter blockers, potency – cell-based, 10-point CRC, membrane potential dye, dose response (AID 588401); assay type: functional;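 further: membrane potential dye fluorescence of choline-evoked depolarization via CHT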
# T7 sequence (Q9GZV3 whole entry): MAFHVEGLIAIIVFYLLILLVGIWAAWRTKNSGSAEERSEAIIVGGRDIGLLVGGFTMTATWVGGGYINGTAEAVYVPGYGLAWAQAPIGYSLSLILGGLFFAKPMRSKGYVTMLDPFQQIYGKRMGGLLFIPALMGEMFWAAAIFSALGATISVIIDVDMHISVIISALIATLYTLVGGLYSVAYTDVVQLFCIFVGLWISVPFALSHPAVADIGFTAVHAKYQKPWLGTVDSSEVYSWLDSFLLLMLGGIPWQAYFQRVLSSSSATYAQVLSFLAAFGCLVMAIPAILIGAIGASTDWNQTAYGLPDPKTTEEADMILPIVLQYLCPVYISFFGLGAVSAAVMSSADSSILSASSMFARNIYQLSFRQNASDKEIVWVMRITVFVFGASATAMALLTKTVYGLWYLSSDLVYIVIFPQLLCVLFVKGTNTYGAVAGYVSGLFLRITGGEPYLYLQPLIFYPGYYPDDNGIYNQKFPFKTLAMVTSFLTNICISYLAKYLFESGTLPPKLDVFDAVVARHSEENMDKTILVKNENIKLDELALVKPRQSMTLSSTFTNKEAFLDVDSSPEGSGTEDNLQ
# [16] = target: T7, High affinity choline transporter 1; test: human choline transporter blockers, potency – cell-based, 5-point CRC, membrane potential dye, dose response (AID 504840); assay type: functional
# H9c2 = test: cells; assay type: functional, cell-based; settings: Rattus norvegicus, H9c2, Myocardium;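 further: confirmatory concentration-response retest of ultra-high-throughput screening hits for modulation of myocardial damage; cell death induced by hydrogen peroxide oxidative stress; compound pretreatment for 60 min then peroxide exposure for 2 h; potency is for protecting the cells against peroxide damage rather than for killing them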
# Melanocortin receptor 4 = Melanocortin receptor 4 (Homo sapiens, UniProt P32245); assay type: functional, cell-based;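 further: Cell-based assay with luminescence read-out, confirmatory dose-response testing for agonist activity of biased ligands at MC4R; human U2OS cells with tagged receptor and beta-arrestin; potency of agonists that increase receptor coupling to beta-arrestin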
# T1 sequence (P63165 whole entry): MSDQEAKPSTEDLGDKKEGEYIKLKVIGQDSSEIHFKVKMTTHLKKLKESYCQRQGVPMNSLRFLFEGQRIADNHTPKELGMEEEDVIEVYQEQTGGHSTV
smiles,measurement,setting,value
c1coc(-c2ccc3nncn3c2)c1,IC50,[1],> 66.6 µM (inactive)
same,IC50,[2],4.58 µM (active)
same,IC50,Albumin,> 94.2 µM (inactive)
same,IC50,[3],7.19 µM (active)
CCOc1ccc(S(=O)(=O)Nc2cc(SCC(=O)O)c(O)c3ccccc23)cc1,EC50,Protein RecA,4.23 µM (active)
same,EC50,[4],78.8 µM (active)
same,IC50,[5],68.8 µM (inactive)
same,AC50,[6],20.7 µM (active)
same,AC50,[7],36.2 µM (active)
same,CC50,Vero,26.6 µM (active)
same,EC50,[8],11.9 µM (inconclusive)
same,IC50,[9],28.4 µM (inactive)
same,AC50,[10],54.4 µM (active)
same,IC50,Genome polyprotein,7.49 µM (active)
same,EC50,[11],> 120 µM (not active)
same,EC50,[12],> 120 µM (not active)
same,EC50,[13],> 120 µM (not active)
CCOc1ccccc1NC(=O)CCS(=O)(=O)c1ccc2c(c1)OCCO2,EC50,[14],> 100 µM (inactive)
COc1ccc(-c2nc(C=O)cs2)cc1,IC50,[15],3.57 µM (active)
same,IC50,[16],2.88 µM (active)
O=C(Cc1ccc(-n2c(=O)c3ccccc3n(Cc3ccccc3F)c2=O)cc1)NCC1CCCO1 (centres undefined),IC50,[15],3.98 µM (active)
same,IC50,[16],7.14 µM (active)
COc1cc(-c2cc(NC=O)c3ncc(-c4ccc(C(C)=O)cc4)n3c2)cc(OC)c1OC,IC50,H9c2,> 79 µM (inactive)
same,EC50,Melanocortin receptor 4,> 89.2 µM (inactive)
